# Test results from ChEMBL document CHEMBL5053547, “Targeting of the FOXM1 Oncoprotein by E3 Ligase-Assisted Degradation” (J Med Chem, 2021).
# pIC50: −log10 of the molar value. Active and inactive are the calls of the source. The calls are words filed in the database; no cut-off is given here.
# Legend:
# MDA-MB-231 [1] = assay: Antiproliferative activity against human MDA-MB-231 cells assessed as growth inhibition by MTT assay; assay type: functional
# Forkhead box protein M1 = target: T1, Forkhead box protein M1 (Homo sapiens, UniProt Q08050); assay: Inhibition of recombinant FOXM1-DBD (unknown origin) binding to DNA measured after 30 mins by biochemical EMSA assay
# T1 sequence (Q08050 whole entry): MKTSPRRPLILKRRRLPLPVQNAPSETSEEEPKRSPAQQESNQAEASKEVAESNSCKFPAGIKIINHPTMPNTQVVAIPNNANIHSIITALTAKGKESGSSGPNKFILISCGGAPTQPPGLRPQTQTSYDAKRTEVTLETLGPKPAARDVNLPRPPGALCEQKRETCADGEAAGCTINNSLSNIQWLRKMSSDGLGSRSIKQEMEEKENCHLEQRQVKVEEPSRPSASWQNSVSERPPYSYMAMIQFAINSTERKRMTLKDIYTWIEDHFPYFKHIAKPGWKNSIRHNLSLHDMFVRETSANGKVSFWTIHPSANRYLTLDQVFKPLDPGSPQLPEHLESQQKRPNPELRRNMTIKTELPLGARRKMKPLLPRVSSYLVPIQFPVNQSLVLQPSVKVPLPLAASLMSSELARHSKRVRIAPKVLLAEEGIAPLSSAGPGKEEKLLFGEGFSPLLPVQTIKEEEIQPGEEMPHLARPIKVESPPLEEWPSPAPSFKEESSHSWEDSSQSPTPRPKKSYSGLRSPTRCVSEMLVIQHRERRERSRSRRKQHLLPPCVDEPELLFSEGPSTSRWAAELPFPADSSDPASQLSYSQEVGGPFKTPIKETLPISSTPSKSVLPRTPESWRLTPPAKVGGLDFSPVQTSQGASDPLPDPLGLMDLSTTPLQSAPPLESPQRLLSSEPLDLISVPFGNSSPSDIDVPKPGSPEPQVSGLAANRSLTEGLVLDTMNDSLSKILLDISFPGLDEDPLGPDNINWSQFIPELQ
# MDA-MB-231 [2] = assay: Reduction in beta-catenin nuclear accumulation in human MDA-MB-231 cells at 20 uM incubated for 16 hrs by Western blot analysis; assay type: functional, cell-based
# MDA-MB-231 [3] = assay: Induction of cell cycle arrest in human MDA-MB-231 cells assessed as accumulation at G0/G1 phase at 20 uM incubated for 16 hrs by flow cytometry assay (reference value: 65.49%); assay type: functional
# MDA-MB-231 [4] = assay: Induction of cell cycle arrest in human MDA-MB-231 cells assessed as accumulation at S phase at 20 uM incubated for 16 hrs by flow cytometry assay (reference value: 22.19%); assay type: functional
# MDA-MB-231 [5] = assay: Induction of cell cycle arrest in human MDA-MB-231 cells assessed as accumulation at G2/M phase at 20 uM incubated for 16 hrs by flow cytometry assay (reference value: 12.30%); assay type: functional
# MDA-MB-231 [6] = assay: In vivo antitumor activity against human MDA-MB-231 cells xenografted in mouse assessed as tumor growth inhibition at 10 mg/kg/day administered through tail vain for 12 consecutive days; assay type: functional; details: route iv, read-out: TGI
# MDA-MB-231 [7] = assay: Antitumor activity against human MDA-MB-231 cells xenografted in mouse assessed as tumor shrinkage at 10 mg/kg/day administered through tail vain for 12 consecutive days by H and E staining based histological analysis; assay type: functional, organism-based; details: route iv
# MDA-MB-231 [8] = assay: Antitumor activity against human MDA-MB-231 cells xenografted in mouse assessed as […] by measuring Ki67 labelling at 10 mg/kg/day administered through tail vain for 12 consecutive days by immunohistochemical analysis; assay type: functional, organism-based; details: route iv
# MDA-MB-231 [9] = assay: Reduction in FOXM1 expression in mouse xenografted with human MDA-MB-231 cells at 10 mg/kg/day administered through tail vain for 12 consecutive days by Western blot analysis; assay type: functional, organism-based; details: route iv
# MDA-MB-231 [10] = assay: Downregulation of CDC25B expression in human MDA-MB-231 cells at 20 uM incubated for 16 hrs by Western blot analysis; assay type: functional, cell-based
# MDA-MB-231 [11] = assay: Downregulation of Cyclin B expression in human MDA-MB-231 cells at 20 uM incubated for 16 hrs by Western blot analysis; assay type: functional, cell-based
# MDA-MB-231 [12] = assay: Antineoplastic effect in human MDA-MB-231 cells xenografted in mouse assessed as reduction in tumor volume at 10 mg/kg/day administered through tail vain for 12 consecutive days; assay type: functional, organism-based; details: route iv
# MDA-MB-231 [13] = assay: Anti-invasive activity against human MDA-MB-231 cells assessed as decrease in Snail gene expression incubated for 16 hrs by qRT-PCR analysis; assay type: functional, cell-based; details: dose 10-20 µM
# MDA-MB-231 [14] = assay: Anti-invasive activity against human MDA-MB-231 cells assessed as decrease in Slug gene expression incubated for 16 hrs by qRT-PCR analysis; assay type: functional, cell-based; details: dose 10-20 µM
# MDA-MB-231 [15] = assay: Anti-invasive activity against human MDA-MB-231 cells assessed as decrease in MMP2 gene expression incubated for 16 hrs by qRT-PCR analysis; assay type: functional, cell-based; details: dose 10-20 µM
# MDA-MB-231 [16] = assay: Anti-invasive activity against human MDA-MB-231 cells assessed as decrease in Vimentin gene expression incubated for 16 hrs by qRT-PCR analysis; assay type: functional, cell-based; details: dose 10-20 µM
# MDA-MB-231 [17] = assay: Anti-invasive activity against human MDA-MB-231 cells assessed as increase in E-cadherin mRNA expression incubated for 16 hrs by qRT-PCR analysis; assay type: functional, cell-based; details: dose 10-20 µM
# MDA-MB-231 [18] = assay: Anti-invasive activity against human MDA-MB-231 cells assessed as reduction migration incubated by transwell assay; assay type: functional, cell-based; details: dose 10-20 µM
# MDA-MB-231 [19] = assay: Anti-invasive activity against human MDA-MB-231 cells assessed as reduction invasion incubated by transwell assay; assay type: functional, cell-based; details: dose 10-20 µM
# Mus musculus = assay: Toxicity in mouse xenografted with human MDA-MB-231 cells assessed as change in body weight at 10 mg/kg/day administered through tail vain for 12 consecutive days; assay type: organism-based; details: in vivo, iv
# MCF-10A = assay: Cytotoxicity against human MCF-10A cells assessed as cell viability measured upto 30 uM; assay type: cell-based
# MCF7 = assay: Antiproliferative activity against human MCF7 cells assessed as cell viability measured at 10 uM; assay type: functional, cell-based
# [20] = Stability in mouse plasma assessed as half life by LC/MS analysis; assay type: ADME, cell-free
# [21] = Stability in rat plasma assessed as half life by LC/MS analysis; assay type: ADME, cell-free
# [22] = Stability in human plasma assessed as half life by LC/MS analysis; assay type: ADME, cell-free
smiles,measurement,setting,value
Nc1c(C(=O)Nc2ccc(F)cc2)sc2nc(-c3ccc(OCC(=O)NCCCCCCCCNC(=O)COc4cccc5c4C(=O)N(C4CCC(=O)NC4=O)C5=O)cc3)cc(C(F)(F)F)c12 (centres undefined),GI50,MDA-MB-231 [1],38.6 µM
Nc1c(C(=O)Nc2ccc(F)cc2)sc2nc(-c3cccs3)cc(C(F)(F)F)c12,GI50,MDA-MB-231 [1],25.6 µM
same,pIC50,Forkhead box protein M1,4.55
same,Activity,MDA-MB-231 [2],inactive
same,Activity,MDA-MB-231 [3],57.52%
same,Activity,MDA-MB-231 [4],16.17%
same,Activity,MDA-MB-231 [5],16.32%
same,inhibition in vivo at 10 mg/kg/day,MDA-MB-231 [6],47.8%
same,Activity,MDA-MB-231 [7],Active
same,Activity,MDA-MB-231 [8],Active
same,Activity,MDA-MB-231 [9],Active
Nc1c(C(=O)Nc2ccc(F)cc2)sc2nc(-c3ccc(OCC(=O)NCCCNc4cccc5c4C(=O)N(C4CCC(=O)NC4=O)C5=O)cc3)cc(C(F)(F)F)c12 (centres undefined),GI50,MDA-MB-231 [1],45.4 µM
CN1C(=O)CCC(N2C(=O)c3cccc(OCC(=O)NCCCOCCOCCOCCCNC(=O)COc4ccc(-c5cc(C(F)(F)F)c6c(N)c(C(=O)Nc7ccc(F)cc7)sc6n5)cc4)c3C2=O)C1=O (centres undefined),Activity,MDA-MB-231 [10],inactive
same,Activity,MDA-MB-231 [11],inactive
same,Activity,MDA-MB-231 [2],inactive
same,Activity,MDA-MB-231 [3],57.44%
same,Activity,MDA-MB-231 [4],24.35%
same,Activity,MDA-MB-231 [5],18.2%
Nc1c(C(=O)Nc2ccc(F)cc2)sc2nc(-c3ccc(OCC(=O)NCCCNC(=O)COc4cccc5c4C(=O)N(C4CCC(=O)NC4=O)C5=O)cc3)cc(C(F)(F)F)c12 (centres undefined),GI50,MDA-MB-231 [1],17.4 µM
Nc1c(C(=O)Nc2ccc(F)cc2)sc2nc(-c3ccc(OCC(=O)NCCOCCOCCNc4cccc5c4C(=O)N(C4CCC(=O)NC4=O)C5=O)cc3)cc(C(F)(F)F)c12 (centres undefined),GI50,MDA-MB-231 [1],> 50 µM
Nc1c(C(=O)Nc2ccc(F)cc2)sc2nc(-c3ccc(OCC(=O)NCCCOCCOCCOCCCNc4cccc5c4C(=O)N(C4CCC(=O)NC4=O)C5=O)cc3)cc(C(F)(F)F)c12 (centres undefined),GI50,MDA-MB-231 [1],> 50 µM
Nc1c(C(=O)Nc2ccc(F)cc2)sc2nc(-c3ccc(OCC(=O)NCCOCCOCCNC(=O)COc4cccc5c4C(=O)N(C4CCC(=O)NC4=O)C5=O)cc3)cc(C(F)(F)F)c12 (centres undefined),GI50,MDA-MB-231 [1],19.5 µM
Nc1c(C(=O)Nc2ccc(F)cc2)sc2nc(-c3ccc(OCC(=O)NCCCOCCOCCOCCCNC(=O)COc4cccc5c4C(=O)N(C4CCC(=O)NC4=O)C5=O)cc3)cc(C(F)(F)F)c12 (centres undefined),GI50,MDA-MB-231 [1],16.2 µM
same,Activity,MDA-MB-231 [12],Active
same,Activity,MDA-MB-231 [10],Active
same,Activity,MDA-MB-231 [11],Active
same,Activity,MDA-MB-231 [2],Active
same,Activity,MDA-MB-231 [3],57.92%
same,Activity,MDA-MB-231 [4],21.75%
same,Activity,MDA-MB-231 [5],20%
same,Activity,MDA-MB-231 [13],Dose-dependent effect
same,Activity,MDA-MB-231 [14],Dose-dependent effect
same,Activity,MDA-MB-231 [15],Dose-dependent effect
same,Activity,MDA-MB-231 [16],Dose-dependent effect
same,Activity,MDA-MB-231 [17],Dose-dependent effect
same,Activity,MDA-MB-231 [18],Dose-dependent effect
same,Activity,MDA-MB-231 [19],Dose-dependent effect
same,inhibition in vivo at 10 mg/kg/day,MDA-MB-231 [6],78.2%
same,Activity,MDA-MB-231 [7],Active
same,Activity,MDA-MB-231 [8],Active
same,Activity,Mus musculus,Non-Toxic
same,Activity,MDA-MB-231 [9],Active
same,Activity,MCF-10A,Non-Toxic
same,Activity,MCF7,Active
same,half-life,[20],> 120 min
same,half-life,[21],35.3 min
same,half-life,[22],104 min
COc1ccc(-c2cc(C(F)(F)F)c3c(N)c(C(=O)Nc4ccc(F)cc4)sc3n2)cc1,GI50,MDA-MB-231 [1],27.3 µM
Nc1c(C(=O)Nc2ccc(F)cc2)sc2nc(-c3ccc(OCC(=O)NCCCCCCCCNc4cccc5c4C(=O)N(C4CCC(=O)NC4=O)C5=O)cc3)cc(C(F)(F)F)c12 (centres undefined),GI50,MDA-MB-231 [1],> 50 µM
